In ChEMBL document CHEMBL3804812, “Design, Syntheses, and Anti-TB Activity of 1,3-Benzothiazinone Azide and Click Chemistry Products Inspired by BTZ043” (ACS Med Chem Lett, 2016):
Activity calls are given as the source filed them. No cut-off for these calls is given here.

Test system: Mycobacterium tuberculosis
Assay: Antibacterial activity against Mycobacterium tuberculosis NTB1 harboring cys287ser mutation in DprE1 assessed as reduction in colony formation
Format: functional, organism-based

## C[C@H]1COC2(CCN(c3nc(=O)c4cc(C(F)(F)F)cc(N=[N+]=[N-])c4s3)CC2)O1
  Activity: Active
